For assay [1], the system named is experimental diabetic nephropathy model. Particulars: cited from earlier work.
The target in another assay is T1, hαvβ1 (Homo sapiens, UniProt P05556+P06756).
T1 construct: The full extracellular domains for all α and β integrin subunits; (GGGS)3 linker (C); acidic coiled-coil with cysteine (C); GG-Avitag (C); hexa-histidine tag (C); basic coiled-coil with cysteine (C); made in house; host or cells: Expi293 cells
Put plainly: Human AlphaLISA integrin-ligand blocking assay (fibronectin). It is filed as biochemical. The method, then:
(§1) Integrin AlphaLISA assay. In the AlphaLISA integrin assays, we used a HEPES based buffer (25 mM HEPES pH 7.4, 137 mM NaCl, 1 mM MgCl2, 1 mM MnCl2, 2 mM CaCl2, 2.7 mM KCl, and 0.05% Tween 20). Optimal assay conditions were determined with a titration of the reagents for signal noise ratio (S/N), linear range, etc. For the respective integrins, we used the final concentrations described in Table 9.
(§2) Briefly, the testing antibody (8 μL) was added as a 4×(of Final testing concentration) solution in the HEPES buffer described previously into a 384w AlphaPlate™ (Perkin Elmer #6005350). Then the integrin and ligand were added sequentially as 8×(4 μL each). Plates were sealed and incubated at room temperature for two hours. Then 4×acceptor bead solution ([…]) was added, and the plates were resealed and incubated at room temperature (RT) for one hour. Finally, 4×([…]) donor beads solution was added in a darkened room and incubated for 45 minutes at room temperature. Plates were read on the Envision (Perkin Elmer) in AlphaScreen™ mode within three hours of donor bead addition.
(In general: Alpha assays give light when donor and acceptor beads are brought close together.)

A further assay has as its target T2, hα5β1 (Homo sapiens, UniProt P05556+P08648).
T2 construct: The full extracellular domains for all α and β integrin subunits; (GGGS)3 linker (C); acidic coiled-coil with cysteine (C); GG-Avitag (C); hexa-histidine tag (C); basic coiled-coil with cysteine (C); made in house; host or cells: Expi293 cells
The description is as above. The class given is biochemical. The method, then:
as §1, §2

In another assay the target is T3, human αvβ1 (Homo sapiens, UniProt P05556+P06756).
T3 construct: expressed in transfected cells
Briefly: Latent TGFβ activation assay, TMLC / CHOK1-integrin co-culture (PAI-1 luciferase). The class given is cell-based. Particulars: FIG. 5B. The method, then:
(§3) Latent TGFβ activation assay. Transfected mink lung epithelial cell (TMLC) cell line containing the TGFβ responsive PAI-1 promoter driving luciferase expression (Mazzieri et al, Methods Mol. Biol. 142, 13-27 (2000)) and the CHO-K1 human and mouse αvβ×integrin cell lines were grown under optimized growth conditions to 90% confluency. TMLC cells were trypsinized and plated at 25,000 cells/well in 50 μL in Costar clear bottom white walled plates. In a separate plate, 25 μL of serially diluted antibodies at 4×concentration were added to wells containing 25 μL of either 25,000 cells of human or mouse αvβ×cells. After a brief mixing, the 50 μL mixture was transferred to the TMLC cell plates for a total volume of 100 μL and incubated at 37° C. for 16 hours. 100 μL of ONE-Glo kit (#PRE6120) was added to each well and read after three to five minutes on the Envision plate reader.

For a further assay, the target named is T4, mouse αvβ1 (Mus musculus, UniProt P09055+P43406).
T4 construct: expressed in transfected cells
T4 sequence (P43406 31-1044): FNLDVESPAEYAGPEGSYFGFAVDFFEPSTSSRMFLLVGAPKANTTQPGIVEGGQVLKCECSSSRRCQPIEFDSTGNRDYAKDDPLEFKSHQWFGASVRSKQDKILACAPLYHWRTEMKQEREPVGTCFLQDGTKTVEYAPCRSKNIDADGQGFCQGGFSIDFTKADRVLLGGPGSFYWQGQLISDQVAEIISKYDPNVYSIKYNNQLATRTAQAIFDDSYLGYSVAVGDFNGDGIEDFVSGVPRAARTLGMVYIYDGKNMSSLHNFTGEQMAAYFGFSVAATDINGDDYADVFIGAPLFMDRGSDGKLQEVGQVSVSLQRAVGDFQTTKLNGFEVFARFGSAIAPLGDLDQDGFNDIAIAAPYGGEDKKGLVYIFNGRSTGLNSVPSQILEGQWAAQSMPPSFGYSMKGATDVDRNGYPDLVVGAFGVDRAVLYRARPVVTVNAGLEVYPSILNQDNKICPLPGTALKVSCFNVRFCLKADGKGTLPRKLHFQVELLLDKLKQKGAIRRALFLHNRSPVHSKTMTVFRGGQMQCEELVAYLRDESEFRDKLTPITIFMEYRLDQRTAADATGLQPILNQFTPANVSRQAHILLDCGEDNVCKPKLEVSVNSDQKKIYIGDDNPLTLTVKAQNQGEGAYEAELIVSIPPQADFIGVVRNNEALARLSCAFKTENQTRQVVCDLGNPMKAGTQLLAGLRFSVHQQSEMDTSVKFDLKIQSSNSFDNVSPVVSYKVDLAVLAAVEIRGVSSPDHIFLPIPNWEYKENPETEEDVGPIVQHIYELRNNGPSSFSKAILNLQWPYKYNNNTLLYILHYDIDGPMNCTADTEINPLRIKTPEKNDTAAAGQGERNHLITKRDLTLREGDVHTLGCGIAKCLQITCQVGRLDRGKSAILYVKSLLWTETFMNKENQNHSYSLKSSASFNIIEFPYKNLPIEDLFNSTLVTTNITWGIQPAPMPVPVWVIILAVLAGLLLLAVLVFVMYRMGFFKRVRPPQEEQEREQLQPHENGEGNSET
T4 sequence (P09055 21-798): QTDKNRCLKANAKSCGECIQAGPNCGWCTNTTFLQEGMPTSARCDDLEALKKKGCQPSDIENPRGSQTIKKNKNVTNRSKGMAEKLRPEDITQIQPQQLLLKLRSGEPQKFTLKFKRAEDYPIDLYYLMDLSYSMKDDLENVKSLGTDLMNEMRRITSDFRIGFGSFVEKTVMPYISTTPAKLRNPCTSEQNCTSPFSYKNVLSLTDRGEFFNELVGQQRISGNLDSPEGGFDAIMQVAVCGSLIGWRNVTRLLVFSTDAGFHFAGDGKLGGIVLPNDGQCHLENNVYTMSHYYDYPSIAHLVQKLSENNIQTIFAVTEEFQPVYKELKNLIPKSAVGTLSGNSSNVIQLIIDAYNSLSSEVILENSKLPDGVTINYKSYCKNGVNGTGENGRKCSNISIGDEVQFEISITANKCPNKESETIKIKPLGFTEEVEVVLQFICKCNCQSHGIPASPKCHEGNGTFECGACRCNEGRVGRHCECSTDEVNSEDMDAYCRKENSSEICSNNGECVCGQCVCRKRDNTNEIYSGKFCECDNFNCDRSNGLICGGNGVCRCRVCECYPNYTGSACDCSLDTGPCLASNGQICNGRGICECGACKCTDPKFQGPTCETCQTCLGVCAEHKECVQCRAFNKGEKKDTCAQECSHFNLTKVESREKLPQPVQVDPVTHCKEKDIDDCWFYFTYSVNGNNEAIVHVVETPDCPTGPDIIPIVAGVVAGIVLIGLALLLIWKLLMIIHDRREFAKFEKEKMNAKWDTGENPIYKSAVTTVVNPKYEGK
Described as above. The class given is cell-based. The following applies: FIG. 5B. The method, then:
as §3

For another assay, the target named is T5, mouse αvβ6 (Mus musculus, UniProt P43406+Q9Z0T9).
T5 construct: expressed in transfected cells
The assay is described as above. The class given is cell-based. The following applies: FIG. 5B. The method, then:
as §3

The target of a further assay is T6, human αvβ6 (Homo sapiens, UniProt P06756+P18564).
T6 construct: expressed in transfected cells
The description is as above. The class given is cell-based. Particulars: FIG. 5B. The method, then:
as §3

The target in the next assay is T7, human αvβ8 (Homo sapiens, UniProt P06756+P26012).
T7 construct: expressed in transfected cells
The assay is described as above. The class given is cell-based. Particulars: FIG. 5B. The method, then:
as §3

Results on one compound are retold here after US20250313635A1, “ANTI-INTEGRIN ANTIBODIES AND USES THEREOF” (Merck Sharp & Dohme LLC, priority 2022, published 2025).

pIC50: −log10 of the molar value. Read-outs that look alike come from different tables or passages of the source.

T1 sequence (P06756 31-992 limits assumed): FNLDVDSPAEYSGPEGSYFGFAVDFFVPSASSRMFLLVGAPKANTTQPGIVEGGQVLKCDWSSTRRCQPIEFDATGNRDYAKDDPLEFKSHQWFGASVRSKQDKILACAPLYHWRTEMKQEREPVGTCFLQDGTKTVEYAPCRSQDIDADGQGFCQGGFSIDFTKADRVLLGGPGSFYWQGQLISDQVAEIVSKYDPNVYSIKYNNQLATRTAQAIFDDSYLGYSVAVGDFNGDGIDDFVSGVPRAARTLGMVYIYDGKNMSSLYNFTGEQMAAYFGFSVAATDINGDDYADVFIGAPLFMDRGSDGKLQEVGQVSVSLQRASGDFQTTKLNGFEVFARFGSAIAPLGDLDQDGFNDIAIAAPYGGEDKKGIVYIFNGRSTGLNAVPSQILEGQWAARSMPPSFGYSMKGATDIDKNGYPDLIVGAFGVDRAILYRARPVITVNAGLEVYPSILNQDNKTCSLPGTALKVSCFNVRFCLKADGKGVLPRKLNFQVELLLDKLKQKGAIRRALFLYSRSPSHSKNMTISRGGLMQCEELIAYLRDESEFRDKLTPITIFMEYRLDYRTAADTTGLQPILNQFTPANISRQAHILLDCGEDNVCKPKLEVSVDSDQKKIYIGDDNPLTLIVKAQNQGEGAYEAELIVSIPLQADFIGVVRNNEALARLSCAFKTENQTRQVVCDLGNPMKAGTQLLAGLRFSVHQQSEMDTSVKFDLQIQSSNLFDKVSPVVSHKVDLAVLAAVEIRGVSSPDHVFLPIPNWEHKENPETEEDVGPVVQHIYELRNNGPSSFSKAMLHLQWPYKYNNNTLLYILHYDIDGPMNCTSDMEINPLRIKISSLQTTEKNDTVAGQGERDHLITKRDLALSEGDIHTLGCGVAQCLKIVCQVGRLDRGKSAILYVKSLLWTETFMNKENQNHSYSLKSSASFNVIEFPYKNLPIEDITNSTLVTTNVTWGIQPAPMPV
T1 sequence (P05556 21-728 limits assumed): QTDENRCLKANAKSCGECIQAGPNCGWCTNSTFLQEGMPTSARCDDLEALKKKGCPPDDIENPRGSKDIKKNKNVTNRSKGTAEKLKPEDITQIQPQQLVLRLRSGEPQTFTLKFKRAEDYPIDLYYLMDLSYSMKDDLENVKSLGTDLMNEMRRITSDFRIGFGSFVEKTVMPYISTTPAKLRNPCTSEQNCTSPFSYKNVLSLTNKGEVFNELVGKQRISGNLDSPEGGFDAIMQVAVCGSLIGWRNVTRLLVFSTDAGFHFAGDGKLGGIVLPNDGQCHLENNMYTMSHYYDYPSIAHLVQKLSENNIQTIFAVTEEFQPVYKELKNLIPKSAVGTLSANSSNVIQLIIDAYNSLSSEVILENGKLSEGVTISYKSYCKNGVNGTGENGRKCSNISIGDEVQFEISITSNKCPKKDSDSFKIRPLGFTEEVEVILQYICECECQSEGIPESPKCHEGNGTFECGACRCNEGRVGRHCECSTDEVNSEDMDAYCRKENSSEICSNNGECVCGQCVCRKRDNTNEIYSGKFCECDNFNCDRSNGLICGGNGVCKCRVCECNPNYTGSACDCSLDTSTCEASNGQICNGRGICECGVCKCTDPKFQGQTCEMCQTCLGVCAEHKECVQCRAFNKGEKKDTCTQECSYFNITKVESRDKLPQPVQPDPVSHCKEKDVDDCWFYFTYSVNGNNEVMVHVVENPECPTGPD
T2 sequence (P08648 42-995 limits assumed): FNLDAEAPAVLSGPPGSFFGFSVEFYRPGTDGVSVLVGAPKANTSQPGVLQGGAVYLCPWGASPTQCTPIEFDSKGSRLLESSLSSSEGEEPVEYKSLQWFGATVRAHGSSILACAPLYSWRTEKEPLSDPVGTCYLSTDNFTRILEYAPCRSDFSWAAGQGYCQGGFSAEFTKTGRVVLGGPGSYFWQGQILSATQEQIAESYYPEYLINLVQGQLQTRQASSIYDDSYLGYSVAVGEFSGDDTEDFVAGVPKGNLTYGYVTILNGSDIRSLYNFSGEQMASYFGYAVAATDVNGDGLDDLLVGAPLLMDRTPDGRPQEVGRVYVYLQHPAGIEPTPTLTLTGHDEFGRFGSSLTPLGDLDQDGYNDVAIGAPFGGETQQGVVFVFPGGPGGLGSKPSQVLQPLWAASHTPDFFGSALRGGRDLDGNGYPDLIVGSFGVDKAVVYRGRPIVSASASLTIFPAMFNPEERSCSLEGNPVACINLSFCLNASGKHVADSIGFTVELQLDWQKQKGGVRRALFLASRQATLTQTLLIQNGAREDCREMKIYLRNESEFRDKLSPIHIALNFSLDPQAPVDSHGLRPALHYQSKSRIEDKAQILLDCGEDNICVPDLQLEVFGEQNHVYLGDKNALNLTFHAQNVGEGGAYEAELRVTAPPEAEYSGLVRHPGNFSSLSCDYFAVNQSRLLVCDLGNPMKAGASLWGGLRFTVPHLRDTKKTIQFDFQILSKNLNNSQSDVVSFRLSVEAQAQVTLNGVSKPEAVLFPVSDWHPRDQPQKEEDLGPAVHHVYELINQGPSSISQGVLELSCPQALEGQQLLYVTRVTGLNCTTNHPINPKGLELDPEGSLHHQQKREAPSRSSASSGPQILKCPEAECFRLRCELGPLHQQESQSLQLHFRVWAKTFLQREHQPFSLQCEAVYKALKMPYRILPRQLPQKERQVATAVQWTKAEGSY
T2 sequence (P05556 21-728 limits assumed): as the sequence (P05556 21-728 limits assumed) above

Turning to `COc1ccc([C@H](CC(=O)O)N2CCN(CCCc3ccc4c(n3)NCCC4)C2=O)cn1` [MK-0429, (3S)-3-(6-methoxypyridin-3-yl)-3-[2-oxo-3-[3-(5,6,7,8-tetrahydro-1,8-naphthyridin-2-yl)propyl]imidazolidin-1-yl]propanoic acid], in assay [1], the proteinuria result is “reduces”. Moreover, in assay [1], the renal fibrosis result is given as “reduces”. Also, the pIC50 on hαvβ1 (FIG. 3D, curve-fitted, read-out: IC50 against human αvβ1, AlphaLISA) was 9.34; at hαvβ1 (Table 11, read-out: IC50 Human integrin AlphaLISA assays hαvβ1), 9.00; on hα5β1 (FIG. 3D, curve-fitted, read-out: IC50 against human αvβ1 (as printed, sixth integrin listed), AlphaLISA), 7.76; on hα5β1 (Table 11, read-out: IC50 Human integrin AlphaLISA assays hα5β1), 7.58. For the same compound, the “inhibition of latent TGFβ activation, human αvβ1 co-culture” value against human αvβ1 is listed as “strong inhibitory effect”. Also, the “inhibition of latent TGFβ activation, mouse αvβ1 co-culture” value at mouse αvβ1 is “strong inhibitory effect”. The “inhibition of latent TGFβ activation, mouse αvβ6 co-culture” value at mouse αvβ6 is “strong inhibitory effect”. Moreover, the “inhibition of latent TGFβ activation, human αvβ6 co-culture” value against human αvβ6 was “strong inhibitory effect”. For the same compound, the “inhibition of latent TGFβ activation, human αvβ8 co-culture” value on human αvβ8 was “strong inhibitory effect”.

By pIC50 is commonly meant −log10 of the IC50, conventionally taken in molar units.
